{"source": "ChEMBL document CHEMBL1201862", "about": "“PubChem BioAssay data set” (2004)", "experiment_in_all_cases": "NCI tumour cell line growth inhibition, 48 h", "key": {"[1]": {"test_system": "EKVX"}, "[2]": {"test_system": "HCT-15"}, "[3]": {"test_system": "KM12"}, "[4]": {"test_system": "UACC-257"}, "[5]": {"test_system": "OVCAR-8"}, "[6]": {"test_system": "NCI/ADR-RES"}, "[7]": {"test_system": "UO-31"}, "[8]": {"test_system": "SF-295"}, "[9]": {"test_system": "Malme-3M"}, "[10]": {"test_system": "SF-539"}, "[11]": {"test_system": "SNB-19"}, "[12]": {"test_system": "SN12C"}, "[13]": {"test_system": "MDA-N"}, "[14]": {"test_system": "SR"}, "[15]": {"test_system": "DU-145"}, "[16]": {"test_system": "IGROV-1"}, "[17]": {"test_system": "LOX IMVI"}, "[18]": {"test_system": "MOLT-4"}, "[19]": {"test_system": "NCI-H460"}}, "note": "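Briefly, cells in 96-well plates were exposed to five compound concentrations for 48 h, and endpoints were estimated by linear interpolation. GI50 = concentration required for 50% inhibition of growth.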 Calls of active or inactive are those of the source. Rule as the data show it: active = GI50 up to about 1.1 µM and inactive = higher."}
{"smiles": "CC(NNC(=O)c1ccncc1)c1ccccc1", "note": "(stereo not given)", "values": [{"measurement": "GI50", "setting": "[1]", "result": "> 100 µM (inactive)"}, {"measurement": "GI50", "setting": "[2]", "result": "> 100", "unit": "µM"}, {"measurement": "GI50", "setting": "[3]", "result": "> 100 µM (inactive)"}, {"measurement": "GI50", "setting": "[4]", "result": "> 100 µM (inactive)"}, {"measurement": "GI50", "setting": "[5]", "result": "> 100 µM (inactive)"}, {"measurement": "GI50", "setting": "[6]", "result": "> 100 µM (inactive)"}, {"measurement": "GI50", "setting": "[7]", "result": "> 100 µM (inactive)"}, {"measurement": "GI50", "setting": "[8]", "result": "> 100 µM (inactive)"}, {"measurement": "GI50", "setting": "[9]", "result": "> 100 µM (inactive)"}, {"measurement": "GI50", "setting": "[10]", "result": "> 100 µM (inactive)"}, {"measurement": "GI50", "setting": "[11]", "result": "> 100 µM (inactive)"}, {"measurement": "GI50", "setting": "[12]", "result": "> 100 µM (inactive)"}, {"measurement": "GI50", "setting": "[13]", "result": "> 100 µM (inactive)"}, {"measurement": "GI50", "setting": "[14]", "result": "> 100 µM (inactive)"}, {"measurement": "GI50", "setting": "[15]", "result": "> 100 µM (inactive)"}, {"measurement": "GI50", "setting": "[16]", "result": "> 100 µM (inactive)"}, {"measurement": "GI50", "setting": "[17]", "result": "> 100 µM (inactive)"}, {"measurement": "GI50", "setting": "[18]", "result": "> 100 µM (inactive)"}]}
{"smiles": "O/N=C1\\Nc2ccccc2OCc2cc(Br)c(Br)cc2COc2ccccc2N\\C1=N/O", "values": [{"measurement": "GI50", "setting": "[1]", "result": "15.2 µM (inactive)"}, {"measurement": "GI50", "setting": "[2]", "result": 5.86, "unit": "µM"}, {"measurement": "GI50", "setting": "[3]", "result": "8.51 µM (inactive)"}, {"measurement": "GI50", "setting": "[4]", "result": "21.8 µM (inactive)"}, {"measurement": "GI50", "setting": "[5]", "result": "10.4 µM (inactive)"}, {"measurement": "GI50", "setting": "[6]", "result": "20.2 µM (inactive)"}, {"measurement": "GI50", "setting": "[7]", "result": "19.1 µM (inactive)"}, {"measurement": "GI50", "setting": "[8]", "result": "16.5 µM (inactive)"}, {"measurement": "GI50", "setting": "[9]", "result": "16.4 µM (inactive)"}, {"measurement": "GI50", "setting": "[11]", "result": "10.7 µM (inactive)"}, {"measurement": "GI50", "setting": "[12]", "result": "11.9 µM (inactive)"}, {"measurement": "GI50", "setting": "[19]", "result": "13.2 µM (inactive)"}, {"measurement": "GI50", "setting": "[13]", "result": "14.3 µM (inactive)"}, {"measurement": "GI50", "setting": "[14]", "result": "2.06 µM (inactive)"}, {"measurement": "GI50", "setting": "[15]", "result": "13.6 µM (inactive)"}, {"measurement": "GI50", "setting": "[16]", "result": "2.79 µM (inactive)"}, {"measurement": "GI50", "setting": "[17]", "result": "10.1 µM (inactive)"}, {"measurement": "GI50", "setting": "[18]", "result": "3.63 µM (inactive)"}]}
{"smiles": "CCOP(=O)(OCC)C(Cc1cn(S(=O)(=O)c2ccc(C)cc2)cn1)C(=O)O", "note": "(stereo not given)", "values": [{"measurement": "GI50", "setting": "[1]", "result": "> 100 µM (inactive)"}, {"measurement": "GI50", "setting": "[2]", "result": "> 100", "unit": "µM"}, {"measurement": "GI50", "setting": "[3]", "result": "> 100 µM (inactive)"}, {"measurement": "GI50", "setting": "[5]", "result": "> 100 µM (inactive)"}, {"measurement": "GI50", "setting": "[6]", "result": "> 100 µM (inactive)"}, {"measurement": "GI50", "setting": "[7]", "result": "> 100 µM (inactive)"}, {"measurement": "GI50", "setting": "[8]", "result": "> 100 µM (inactive)"}, {"measurement": "GI50", "setting": "[9]", "result": "> 100 µM (inactive)"}, {"measurement": "GI50", "setting": "[10]", "result": "> 100 µM (inactive)"}, {"measurement": "GI50", "setting": "[11]", "result": "> 100 µM (inactive)"}, {"measurement": "GI50", "setting": "[12]", "result": "> 100 µM (inactive)"}, {"measurement": "GI50", "setting": "[19]", "result": "> 100 µM (inactive)"}, {"measurement": "GI50", "setting": "[13]", "result": "> 100 µM (inactive)"}, {"measurement": "GI50", "setting": "[14]", "result": "> 100 µM (inactive)"}, {"measurement": "GI50", "setting": "[15]", "result": "> 100 µM (inactive)"}, {"measurement": "GI50", "setting": "[16]", "result": "> 100 µM (inactive)"}, {"measurement": "GI50", "setting": "[17]", "result": "> 100 µM (inactive)"}, {"measurement": "GI50", "setting": "[18]", "result": "> 100 µM (inactive)"}]}
{"smiles": "C=CCOc1ccc(N)c([N+](=O)[O-])c1", "values": [{"measurement": "GI50", "setting": "[1]", "result": "> 100 µM (inactive)"}, {"measurement": "GI50", "setting": "[2]", "result": "> 100", "unit": "µM"}, {"measurement": "GI50", "setting": "[3]", "result": "> 100 µM (inactive)"}, {"measurement": "GI50", "setting": "[4]", "result": "> 100 µM (inactive)"}, {"measurement": "GI50", "setting": "[5]", "result": "> 100 µM (inactive)"}, {"measurement": "GI50", "setting": "[6]", "result": "> 100 µM (inactive)"}, {"measurement": "GI50", "setting": "[7]", "result": "94.4 µM (inactive)"}, {"measurement": "GI50", "setting": "[8]", "result": "> 100 µM (inactive)"}, {"measurement": "GI50", "setting": "[9]", "result": "> 100 µM (inactive)"}, {"measurement": "GI50", "setting": "[10]", "result": "> 100 µM (inactive)"}, {"measurement": "GI50", "setting": "[11]", "result": "> 100 µM (inactive)"}, {"measurement": "GI50", "setting": "[12]", "result": "> 100 µM (inactive)"}, {"measurement": "GI50", "setting": "[13]", "result": "> 100 µM (inactive)"}, {"measurement": "GI50", "setting": "[14]", "result": "> 100 µM (inactive)"}, {"measurement": "GI50", "setting": "[15]", "result": "> 100 µM (inactive)"}, {"measurement": "GI50", "setting": "[16]", "result": "> 100 µM (inactive)"}, {"measurement": "GI50", "setting": "[17]", "result": "> 100 µM (inactive)"}, {"measurement": "GI50", "setting": "[18]", "result": "> 100 µM (inactive)"}]}
{"smiles": "O=C(O/C=C\\OC1CCCC1(c1ccccc1)c1ccccc1)c1ccccc1", "note": "(stereo not given)", "values": [{"measurement": "GI50", "setting": "[1]", "result": "17.5 µM (inactive)"}, {"measurement": "GI50", "setting": "[2]", "result": 2.23, "unit": "µM"}, {"measurement": "GI50", "setting": "[3]", "result": "14.9 µM (inactive)"}, {"measurement": "GI50", "setting": "[4]", "result": "15.8 µM (inactive)"}, {"measurement": "GI50", "setting": "[5]", "result": "3 µM (inactive)"}, {"measurement": "GI50", "setting": "[6]", "result": "2.88 µM (inactive)"}, {"measurement": "GI50", "setting": "[7]", "result": "1.87 µM (inactive)"}, {"measurement": "GI50", "setting": "[8]", "result": "19.2 µM (inactive)"}, {"measurement": "GI50", "setting": "[10]", "result": "3.66 µM (inactive)"}, {"measurement": "GI50", "setting": "[11]", "result": "14.8 µM (inactive)"}, {"measurement": "GI50", "setting": "[12]", "result": "3.95 µM (inactive)"}, {"measurement": "GI50", "setting": "[19]", "result": "25.9 µM (inactive)"}, {"measurement": "GI50", "setting": "[13]", "result": "3.47 µM (inactive)"}, {"measurement": "GI50", "setting": "[14]", "result": "2.17 µM (inactive)"}, {"measurement": "GI50", "setting": "[15]", "result": "3.02 µM (inactive)"}, {"measurement": "GI50", "setting": "[16]", "result": "2.6 µM (inactive)"}, {"measurement": "GI50", "setting": "[17]", "result": "1.67 µM (inactive)"}, {"measurement": "GI50", "setting": "[18]", "result": "4.29 µM (inactive)"}]}
{"smiles": "O=S(=O)(O)c1cc(O)c(/N=N/c2ccc3ccccc3c2O)c2ccccc12", "note": "[ERIOCHROME BLUE BLACK B]", "values": [{"measurement": "GI50", "setting": "[1]", "result": "12.9 µM (inactive)"}, {"measurement": "GI50", "setting": "[2]", "result": 23.9, "unit": "µM"}, {"measurement": "GI50", "setting": "[3]", "result": "30.4 µM (inactive)"}, {"measurement": "GI50", "setting": "[4]", "result": "25.8 µM (inactive)"}, {"measurement": "GI50", "setting": "[6]", "result": "15.6 µM (inactive)"}, {"measurement": "GI50", "setting": "[7]", "result": "17.1 µM (inactive)"}, {"measurement": "GI50", "setting": "[8]", "result": "27.4 µM (inactive)"}, {"measurement": "GI50", "setting": "[9]", "result": "0.0753 µM (active)"}, {"measurement": "GI50", "setting": "[11]", "result": "37.8 µM (inactive)"}, {"measurement": "GI50", "setting": "[12]", "result": "23.4 µM (inactive)"}, {"measurement": "GI50", "setting": "[13]", "result": "5.06 µM (inactive)"}, {"measurement": "GI50", "setting": "[14]", "result": "7.41 µM (inactive)"}, {"measurement": "GI50", "setting": "[15]", "result": "14.3 µM (inactive)"}, {"measurement": "GI50", "setting": "[16]", "result": "3.59 µM (inactive)"}, {"measurement": "GI50", "setting": "[18]", "result": "18 µM (inactive)"}]}
